Test results from patent US10829756B2, “Discovery of enzymes from the alpha-keto acid decarboxylase family” (Regents of the University of California, priority 2015, dated 2020).

Assays:
[1] = test system: E. coli strain (ATCC 98082 pZS_thrO, pZAlac_ilvA_LeuA, pZE12LeuA*BCDKA6_KIVD_wt); assay: Alcohol toxicity: growth (OD600) of the alcohol production strain over 7 hours; type: cell-based; conditions: 7-hour incubation
Experimental: Alcohol tolerance of the in vivo alcohol production strain was evaluated by supplementing the fermentation media with specified quantities of long chain alcohols, and measuring growth over 7 hours. Both the E. coli strain (ATCC 98082 pZS_thrO, pZAlac_ilvA_LeuA, pZE12LeuA*BCDKA6_KIVD_wt) and fermentation media (1×M9 metals+1× trace metal mix+0.5% yeast extract+2% glucose+antibiotics) and conditions are the same as described above (Fermentation procedure and analysis). Cells were grown in media without IPTG-induction to a starting OD600 ˜0.02 and then supplemented with either 1-petanol, 1-hexanol, 1-heptanol, or 1-octanol at specified concentrations of 10 mg/L, 50 mg/L, 250 mg/L, 500 mg/L, or 1000 mg/L. OD600 readings were taken hourly up to 7 hours.

[2] = target: GEO179, 2-ketoacid decarboxylase, SEQ ID NO:14 (Klebsiella variicola, UniProt A0ACD7F8P2, H281L/S236A/T380V); assay: Steady-state kinetics of 2-ketoacid decarboxylase (ADH/NADH coupled); type: biochemical; conditions: pH 7.5, 21° C.
Source text: (§1) FIG. 20: Depicts results of a structural alignment of GEOs and KIVD (GEO175=SEQ ID NO:2, GEO243=SEQ ID NO:5, GEO 250=SEQ ID NO:6, GEO 242=SEQ ID NO:7, GEO 245=SEQ ID NO:8, GEO 251=SEQ ID NO:9, GEO 247=SEQ ID NO:10, GEO 244=SEQ ID NO:11, GEO 246=SEQ ID NO:12, GEO 248=SEQ ID NO:13, GEO 179=SEQ ID NO:14, GEO 240=SEQ ID NO:15, GEO 195=SEQ ID NO:16, GEO 241=SEQ ID NO:17, GEO 249=SEQ ID NO:4, KIVD_VLV=SEQ ID NO:3). Active site residues are denoted with a black box under the residue letter.
(§2) For the native KIVD and KIVD_VLV mutant, 2 ml overnight cultures of XL1B cells were transformed with pQE9 containing N-terminal his-tagged KIVD enzymes and grown in Terrific Broth (BP biomedical, Cat#3046-042) with 50 μg/mL of carbenicillin. (Fisher scientific, Cat# BP2648-5) For the GEOs, 2 ml overnight cultures of BLR cells were transformed with pet29b+ plasmid containing N-terminal his-tagged GEOs, and grown in Terrific Broth with 50 μg/mL of kanamycin. (Fisher scientific, Cat# BP906-5) These cultures were diluted 1:1000 in 500 mL of Terrific Broth with 1 mM MgSO4, 1% glucose, and 50ug/mL of corresponding antibiotics, then grown at 37° C. for 24 hours. Cultures were pelleted down at 4700 rpm for 10 mins and resuspended in auto-induction media (LB broth, 1 mM MgSO4, 0.1 mM TPP, 1×NPS, and 1×5052) for induction at 18° C. for 34 hours. […] Protein concentrations were determined using a Synergy H1 spectrophotometer (Biotek) by measuring absorbance at 280 nm using their calculated extinction coefficients with ExPASy ProtParam Tool.^33 All other buffers and salts were purchased from Fisher Scientific unless otherwise specified.
(§3) The kcat and KM values of selective KIVD mutants were measured for the substrates: C3, C5, isoC5, and C8. […] Activity was measured at 0.005 mM to 10 mM substrates. […] Absorbance readings were taken every 1-minute at OD340 at 21° C. for 60 minutes using the Synergy H1. Kinetic parameters (kcat and KM) were determined by fitting initial velocity versus substrate concentration data to the Michaelis-Menten equation.

[3] = test system: GEO195, 2-ketoacid decarboxylase, SEQ ID NO:16; assay: as above; type: biochemical; conditions: pH 7.5, 21° C.
Source text: as §1, §2, §3

[4] = test system: Streptomyces sp. C GEO175 variant L376T_T240S, SEQ ID NO:19; assay: as above; type: biochemical; conditions: relative to GEO 175, same conditions
Experimental: FIG. 6: Depicts results of kinetic characterization of GEO 175 and GEO 175 L376T_T240S. Kinetic constants were measured as described herein. The substrate 2-ketooctanoate carbon chain numbering referred to in the text is numbered in white. According to the molecular model of GEO 175, the double mutation L376T_T240S is predicted to recede the pocket by 1.4 Å and remove interactions between the binding pocket and carbon 8 of the ketoacid alkyl chain. […]
For the native KIVD and KIVD_VLV mutant, 2 ml overnight cultures of XL1B cells were transformed with pQE9 containing N-terminal his-tagged KIVD enzymes and grown in Terrific Broth (BP biomedical, Cat#3046-042) with 50 μg/mL of carbenicillin. […] Protein concentrations were determined using a Synergy H1 spectrophotometer (Biotek) by measuring absorbance at 280 nm using their calculated extinction coefficients with ExPASy ProtParam Tool.^33 All other buffers and salts were purchased from Fisher Scientific unless otherwise specified.
The kcat and KM values of selective KIVD mutants were measured for the substrates: C3, C5, isoC5, and C8. […] Activity was measured at 0.005 mM to 10 mM substrates. […]

[5] = 1000 mg l^−1 alcohol supplemented
[6] = 250 mg l^−1 alcohol supplemented, OD 1.9 without toxicity
[7] = 500 mg l^−1 alcohol supplemented

Sequence of GEO179, 2-ketoacid decarboxylase, SEQ ID NO:14 (A0ACD7F8P2 entry or part of it H281L/S236A/T380V): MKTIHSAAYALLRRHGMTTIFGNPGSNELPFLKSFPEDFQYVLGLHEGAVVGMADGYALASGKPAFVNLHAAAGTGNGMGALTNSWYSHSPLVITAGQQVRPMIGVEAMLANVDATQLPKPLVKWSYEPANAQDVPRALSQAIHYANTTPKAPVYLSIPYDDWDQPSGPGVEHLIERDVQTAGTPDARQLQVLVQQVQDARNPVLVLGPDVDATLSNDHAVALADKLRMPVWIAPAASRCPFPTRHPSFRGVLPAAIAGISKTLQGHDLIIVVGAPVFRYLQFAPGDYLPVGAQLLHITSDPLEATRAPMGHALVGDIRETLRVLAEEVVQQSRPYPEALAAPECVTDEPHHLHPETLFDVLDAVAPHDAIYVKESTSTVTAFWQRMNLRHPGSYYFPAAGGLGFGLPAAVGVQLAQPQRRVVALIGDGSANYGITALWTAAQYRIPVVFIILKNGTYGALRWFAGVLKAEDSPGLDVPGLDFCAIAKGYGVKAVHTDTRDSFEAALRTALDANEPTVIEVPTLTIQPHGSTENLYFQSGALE

Row | SMILES | final OD of E. coli cultures [1, 5] | final OD of E. coli cultures [1, 6] | final OD of E. coli cultures [1, 7] | decrease in catalytic efficiency relative to GEO 175 [4] | also measured
1 | CCCCCO [pentanol, 1-pentanol] | 1.5 |  |  |  | 
2 | CCCCCCCO [heptanol, 1-heptanol] | no significant growth | approximately 1.6 | 0.1 |  | 
3 | CCCCCCO [hexanol, 1-hexanol] | 0.2 | approximately 1.6 | 1.0 |  | 
4 | CCCCCCCCO [C8 alcohol, 1-octanol] |  | ~1.0 | No significant growth |  | 
5 | CC(C)C(=O)C(=O)O [iso C5, 2-ketoisovaleric acid] |  |  |  | less than 2 fold | kcat [2]: 0.39 ± 0.01 s⁻¹; Km [3]: 9.1 ± 0.3 mM; kcat [3]: 0.072 ± 0.001 s⁻¹
6 | CC(=O)C(=O)O [C3] |  |  |  | less than 2 fold | 
